Test results from patent US6440991B1, “Ethers of 7-desmethlrapamycin” (Wyeth, priority 2000, dated 2002).
Values after ≈ are worked out from the molar mass of the structure shown.

How the values were obtained:
Assay type in all cases: cell-based
Candida lusitaniae = assay: Antifungal activity, microtiter broth dilution MIC; details: Candida lusitaniae strain 94-3; RPMI 1640, 35° C., 24-48 hours
Description: (§1) The antifungal activity for the ethers of 7-desmethylrapamycin of this invention was confirmed in a standard pharmacological test procedure which measured the ability of the compound being evaluated to inhibit fungal growth. 42-O-(2-Hydroxy)ethyl 7-desmethylrapamycin […] (Compound I) was evaluated as a representative compound of this invention. The procedure used and results obtained are briefly described below. A 96 U-bottom microtiter plate was filled (50 μl/well) with RPMI 1640. The compounds to be evaluated were placed in appropriate wells, and serial diluted in successive wells to provide 11 dilutions. The concentrations ranged from 64 through 0.06 μug/ml. An adjusted inoculum of fungi (50 μl) was added to each well and the plates were incubated at 35° C. for 24-48 hours. […] Nystatin and amphotericin B were used for the purpose of comparison.

Candida krussii = assay: Antifungal activity, microtiter broth dilution MIC; details: Candida krussii strain 94-2; RPMI 1640, 35° C., 24-48 hours
Description: as §1

Aspergillus fumigatus = assay: Antifungal activity, microtiter broth dilution MIC; details: Aspergillus fumigatus strain ATCC 26933; RPMI 1640, 35° C., 24-48 hours
Description: as §1

Candida tropicalis = assay: Antifungal activity, microtiter broth dilution MIC; details: RPMI 1640, 35° C., 24-48 hours
Description: as §1

Candida rugosa = assay: Antifungal activity, microtiter broth dilution MIC; details: Candida rugosa strain 94-10; RPMI 1640, 35° C., 24-48 hours
Description: as §1

Candida albicans = assay: Antifungal activity, microtiter broth dilution MIC; details: RPMI 1640, 35° C., 24-48 hours
Description: as §1

Aspergillus niger = assay: Antifungal activity, microtiter broth dilution MIC; details: RPMI 1640, 35° C., 24-48 hours
Description: as §1

Candida pseudotropicalis = assay: Antifungal activity, microtiter broth dilution MIC; details: Candida pseudotropicalis strain ATCC 28838; RPMI 1640, 35° C., 24-48 hours
Description: as §1

Candida parapsilosis = assay: Antifungal activity, microtiter broth dilution MIC; details: RPMI 1640, 35° C., 24-48 hours
Description: as §1

[1] = test system: U87MG human glioblastoma cells; assay: Inhibition of U87MG human glioblastoma cell growth (3H-thymidine incorporation); details: 48 hours incubation with compound
Description: The antineoplastic activity of the compounds of this invention were confirmed in a standard pharmacological test procedure which measures the inhibition of U87MG human glioblastoma cell growth (as a function of ^3H-thymidine incorporation), using 42-O-(2-hydroxy)ethyl 7-desmethylrapamycin (Compound I) as a representative compound of this invention. The following briefly describes the procedure used and results obtained. U87MG human glioblastoma cells (ATCC # HTB-14; available from the American Type Culture Collection; 10801 University Boulevard; Manassas, Va. 20110;), were grown in the following media.
Growth Medium: BRL Minimum Essential Medium with Earle Salts (500 mL)
+5 mL BRL MEM Non-Essential Amino Acids (10 mM)
+5 mL BRL Penicillin-Streptomycin (1 0000u/mL,1 0000 μg/mL)
+5 mL BRL Na Pyruvate Solution (100 mM)
+5 mL BRL L-Glutamine 200 mM
+50 mL BRL Fetal Bovine Serum (Qualified)
1. Cells were trypsinized and plated at a concentration of 10^4 cells/well in a final volume of 200 μL growth medium in 96-well flat bottom plates and allowed to adhere for 24 hours at 37° C.
2. The media was removed by aspiration with care to not disturb the cell monolayer. 200 μL of fresh growth media was added per well, allowing enough wells for samples to be run in triplicate. […]
4. […] Mats were counted in a Wallac Betaplate counter.

[2] = Candida tropicalis strain 94-13
[3] = Candida tropicalis strain 94-14
[4] = Candida albicans strain ATCC 90028
[5] = Candida parapsilosis strain 94-8
[6] = Candida parapsilosis strain 94-9
[7] = Candida parapsilosis strain ATCC 90018

SMILES: C[C@@H]1[C@H](O)[C@@H](C)/C=C/C=C/CC/C=C/C=C/C=C/C=C/C(O[C@H]2O[C@H](C)[C@@H](O)[C@H](N)[C@@H]2O)CC2O[C@](O)(CC(O)C(O)CCC(O)CC(O)CC(O)CC(=O)O[C@H]1C)CC(O)C2C(=O)O (stereo partly shown) [Nystatin]
- ANTIFUNGAL ACTIVITY (MIC) (Candida lusitaniae): 1 µg/mL
- ANTIFUNGAL ACTIVITY (MIC) (Candida krussii): 1 µg/mL
- ANTIFUNGAL ACTIVITY (MIC) (Aspergillus fumigatus): 2 µg/mL
- ANTIFUNGAL ACTIVITY (MIC) (Candida tropicalis; [2]): 1 µg/mL
- ANTIFUNGAL ACTIVITY (MIC) (Candida tropicalis; [3]): 1 µg/mL
- ANTIFUNGAL ACTIVITY (MIC) (Candida rugosa): 1 µg/mL
- ANTIFUNGAL ACTIVITY (MIC) (Candida albicans; Candida albicans strain 1063): 1 µg/mL
- ANTIFUNGAL ACTIVITY (MIC) (Candida albicans; Candida albicans strain 1117): 1 µg/mL
- ANTIFUNGAL ACTIVITY (MIC) (Candida albicans; [4]): 1 µg/mL
- ANTIFUNGAL ACTIVITY (MIC) (Aspergillus niger; Aspergillus niger strain S399): 2 µg/mL
- ANTIFUNGAL ACTIVITY (MIC) (Aspergillus niger; Aspergillus niger strain S430): 1 µg/mL
- ANTIFUNGAL ACTIVITY (MIC) (Candida pseudotropicalis): 1 µg/mL
- ANTIFUNGAL ACTIVITY (MIC) (Candida parapsilosis; [5]): 2 µg/mL
- ANTIFUNGAL ACTIVITY (MIC) (Candida parapsilosis; [6]): 1 µg/mL
- ANTIFUNGAL ACTIVITY (MIC) (Candida parapsilosis; [7]): 2 µg/mL

SMILES: C[C@@H]1[C@H](O)[C@@H](C)/C=C/C=C/C=C/C=C/C=C/C=C/C=C/[C@H](O[C@@H]2O[C@H](C)[C@@H](O)[C@H](N)[C@@H]2O)C[C@@H]2O[C@](O)(C[C@@H](O)C[C@@H](O)[C@H](O)CC[C@@H](O)C[C@@H](O)CC(=O)O[C@H]1C)C[C@H](O)[C@H]2C(=O)O [Amphotericin B, amphotericin B]
- ANTIFUNGAL ACTIVITY (MIC) (Candida lusitaniae): ≦0.06 μg/mL
- ANTIFUNGAL ACTIVITY (MIC) (Candida krussii): 0.12 µg/mL
- ANTIFUNGAL ACTIVITY (MIC) (Aspergillus fumigatus): 0.25 µg/mL
- ANTIFUNGAL ACTIVITY (MIC) (Candida tropicalis; [2]): ≦0.06 μg/mL
- ANTIFUNGAL ACTIVITY (MIC) (Candida tropicalis; [3]): ≦0.06 μg/mL
- ANTIFUNGAL ACTIVITY (MIC) (Candida rugosa): 0.25 µg/mL
- ANTIFUNGAL ACTIVITY (MIC) (Candida albicans; Candida albicans strain 1063): ≦0.06 μg/mL
- ANTIFUNGAL ACTIVITY (MIC) (Candida albicans; Candida albicans strain 1117): 0.12 µg/mL
- ANTIFUNGAL ACTIVITY (MIC) (Candida albicans; [4]): 0.12 µg/mL
- ANTIFUNGAL ACTIVITY (MIC) (Aspergillus niger; Aspergillus niger strain S399): 0.50 µg/mL
- ANTIFUNGAL ACTIVITY (MIC) (Aspergillus niger; Aspergillus niger strain S430): 0.25 µg/mL
- ANTIFUNGAL ACTIVITY (MIC) (Candida pseudotropicalis): ≦0.06 μg/mL
- ANTIFUNGAL ACTIVITY (MIC) (Candida parapsilosis; [5]): ≦0.06 μg/mL
- ANTIFUNGAL ACTIVITY (MIC) (Candida parapsilosis; [6]): 0.12 µg/mL
- ANTIFUNGAL ACTIVITY (MIC) (Candida parapsilosis; [7]): ≦0.06 μg/mL

SMILES: CO[C@@H]1C[C@H](C[C@@H](C)[C@@H]2CC(=O)[C@H](C)/C=C(\C)[C@@H](O)[C@@H](OC)C(=O)[C@H](C)C[C@H](C)/C=C/C=C/C=C(\C)[C@@H](O)C[C@@H]3CC[C@@H](C)[C@@](O)(O3)C(=O)C(=O)N3CCCC[C@H]3C(=O)O2)CC[C@H]1OCCO [Compound I, 42-O-(2-Hydroxy)ethyl 7-desmethyirapamycin]
- IC50 [1]: 0.0035 µg/mL (≈ 3.71 nM)
- ANTIFUNGAL ACTIVITY (MIC) (Candida lusitaniae): 1 µg/mL
- ANTIFUNGAL ACTIVITY (MIC) (Candida krussii): 0.5 µg/mL
- ANTIFUNGAL ACTIVITY (MIC) (Aspergillus fumigatus): 64 µg/mL
- ANTIFUNGAL ACTIVITY (MIC) (Candida tropicalis; [2]): 0.5 µg/mL
- ANTIFUNGAL ACTIVITY (MIC) (Candida tropicalis; [3]): 0.5 µg/mL
- ANTIFUNGAL ACTIVITY (MIC) (Candida rugosa): 1 µg/mL
- ANTIFUNGAL ACTIVITY (MIC) (Candida albicans; Candida albicans strain 1063): 1 µg/mL
- ANTIFUNGAL ACTIVITY (MIC) (Candida albicans; Candida albicans strain 1117): 2 µg/mL
- ANTIFUNGAL ACTIVITY (MIC) (Candida albicans; [4]): 2 µg/mL
- ANTIFUNGAL ACTIVITY (MIC) (Aspergillus niger; Aspergillus niger strain S399): 64 µg/mL
- ANTIFUNGAL ACTIVITY (MIC) (Aspergillus niger; Aspergillus niger strain S430): 64 µg/mL
- ANTIFUNGAL ACTIVITY (MIC) (Candida pseudotropicalis): 2 µg/mL
- ANTIFUNGAL ACTIVITY (MIC) (Candida parapsilosis; [5]): 2 µg/mL
- ANTIFUNGAL ACTIVITY (MIC) (Candida parapsilosis; [6]): 2 µg/mL
- ANTIFUNGAL ACTIVITY (MIC) (Candida parapsilosis; [7]): 2 µg/mL
